Results reported in patent US10183918B2, “Oxa-azaspiro compounds having activity against pain” (LABORATORIOS DEL DR. ESTEVE S.A., priority 2015, dated 2019).
pKi: −log10 of the molar value.

Biological target: T1, human σ1 receptor (Homo sapiens, UniProt Q99720)
T1 construct: expressed in transfected cells; host or cells: HEK-293 (membranes)
Assay: Human σ1 receptor radioligand assay
Type: binding
Details: transfected HEK-293 membranes, 5 nM [3H](+)-pentazocine as radioligand
Method: Human σ1 Receptor Radioligand Assay
To investigate binding properties of test compounds to human σ1 receptor, transfected HEK-293 membranes and [^3H](+)-pentazocine (Perkin Elmer, NET-1056), as the radioligand, were used. The assay was carried out with 7 μg of membrane suspension, 5 nM of [^3H](+)-pentazocine in either absence or presence of either buffer or 10 μM Haloperidol for total and non-specific binding, respectively. Binding buffer contained Tris-HCl 50 mM at pH 8. Plates were incubated at 37° C. for 120 minutes. After the incubation period, the reaction mix was then transferred to Multiscreen HTS, FC plates (Millipore), filtered and plates were washed 3 times with ice-cold 10 mM Tris-HCL (pH7.4). Filters were dried and counted at approximately 40% efficiency in a MicroBeta scintillation counter (Perkin-Elmer) using EcoScint liquid scintillation cocktail

T1 sequence (Q99720 whole entry): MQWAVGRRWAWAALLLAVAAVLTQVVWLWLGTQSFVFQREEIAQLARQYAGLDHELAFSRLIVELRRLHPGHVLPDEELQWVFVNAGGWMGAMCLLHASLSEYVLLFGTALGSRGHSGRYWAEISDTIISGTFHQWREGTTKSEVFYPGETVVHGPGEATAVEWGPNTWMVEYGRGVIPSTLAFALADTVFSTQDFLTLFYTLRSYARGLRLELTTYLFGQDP

Compound	pKi
CCN1C[C@]2(CC[C@H](NCc3ccccc3)CC2)OC2(CC2)C1=O [Example 1, (5s,8s)-8-(benzylamino)-12-ethyl-4-oxa-12-azadispiro[2.1.5.3]tridecan-13-one]	≤ 6.30
CCN1C[C@]2(CC[C@@H](NCc3ccccc3)CC2)OC2(CC2)C1=O [Example 2, (5r,8r)-8-(benzylamino)-12-ethyl-4-oxa-12-azadispiro[2.1.5.3]tridecan-13-one]	> 6.30
CCN1C[C@]2(CC[C@H](N(C)CCc3ccccc3)CC2)OC2(CC2)C1=O [Example 3, (5s,8s)-12-ethyl-8[methyl(2-phenylethyl)amino]-4-oxa-12-azadispiro[2.1.5.3]tridecan-13-one]	> 7.00
CCN1C[C@]2(CC[C@@H](N(C)CCc3ccccc3)CC2)OC2(CC2)C1=O [Example 4, (5r,8r)-12-ethyl-8-[methyl(2-phenylethyl)amino]-4-oxa-12-azadispiro[2.1.5.3]tridecan-13-one]	> 7.00
CCN1C[C@]2(CC[C@H](N(C)Cc3ccccc3)CC2)OC2(CC2)C1=O [Example 5, (5s,8s)-8-[benzyl(methyl)amino]-12-ethyl-4-oxa-12-azadispiro[2.1.5.3]tridecan-13-one]	> 7.00
CCN1C[C@]2(CC[C@H](NCCc3ccccc3)CC2)OC2(CC2)C1=O [Example 6, (5s,8s)-12-ethyl-8-[(2-phenylethyl)amino]-4-oxa-12-azadispiro[2.1.5.3]tridecan-13-one]	> 6.30
CCN1C[C@]2(CC[C@@H](NCCc3ccccc3)CC2)OC2(CC2)C1=O [Example 7, (5r,8r)-12-ethyl-8-[(2-phenylethyl)amino]-4-oxa-12-azadispiro[2.1.5.3]tridecan-13-one]	> 7.00
CN(Cc1ccccc1)[C@H]1CC[C@@]2(CC1)CN(c1ccccc1)C(=O)C1(CC1)O2 [Example 8, (5s,8s)-8-[benzyl(methyl)amino]-12-phenyl-4-oxa-12-azadispiro[2.1.5.3]tridecan-13-one]	> 7.00
CN(CCc1ccccc1)[C@H]1CC[C@@]2(CC1)CN(c1ccccc1)C(=O)C1(CC1)O2 [Example 9, (5s,8s)-8-(methyl(2-phenylethyl)amino]-12-phenyl-4-oxa-12-azadispiro[2.1.5.3]tridecan-13-one]	> 6.30
O=C1N(c2ccccc2)C[C@]2(CC[C@H](NCc3ccccc3)CC2)OC12CC2 [Example 10, (5s,8s)-8-(benzylamino)-12-phenyl-4-oxa-12-azadispiro[2.1.5.3]tridecan-13-one]	≤ 6.30
O=C1N(c2ccccc2)C[C@]2(CC[C@H](NCCc3ccccc3)CC2)OC12CC2 [Example 11, (5s,8s)-12-phenyl-8-[(2-phenylethyl)amino]-4-oxa-12-azadispiro[2.1.5.3]tridecan-13-one]	> 6.30
O=C1N(c2ccccc2)C[C@]2(CC[C@@H](NCc3ccccc3)CC2)OC12CC2 [Example 12, (5r,8r)-8-(benzylamino)-12-phenyl-4-oxa-12-azadispiro[2.1.5.3]tridecan-13-one]	≤ 6.30
O=C1N(c2ccccc2)C[C@]2(CC[C@@H](NCCc3ccccc3)CC2)OC12CC2 [Example 13]	≤ 6.30
CN(Cc1ccccc1)[C@H]1CC[C@]2(CC1)CN(c1ccccc1)C(=O)C1(CC1)O2 [Example 14, (5r,8r)-8-[benzyl(methyl)amino]-12-phenyl-4-oxa-12-azadispiro[2.1.5.3]tridecan-13-one]	> 6.30
CN(CCc1ccccc1)[C@H]1CC[C@]2(CC1)CN(c1ccccc1)C(=O)C1(CC1)O2 [Example 15, (5r,8r)-8-[methyl(2-phenylethyl)amino]-12-phenyl-4-oxa-12-azadispiro[2.1.5.3]tridecan-13-one]	> 6.30
CCN1C[C@]2(CC[C@@H](N(C)Cc3ccccc3)CC2)OC2(CC2)C1=O [Example 16, (5r,8r)-8-[benzyl(methyl)amino]-12-ethyl-4-oxa-12-azadispiro[2.1.5.3]tridecan-13-one]	> 7.00
CCN1CC2(CC2)O[C@]2(CC[C@@H](N(C)Cc3ccccc3)CC2)C1 [Example 17, (5s,8s)-N-benzyl-12-ethyl-N-methyl-4-oxa-12-azadispiro[2.1.5.3]tridecan-8-amine]	> 6.30
CCN1CC2(CC2)O[C@]2(CC[C@H](N(C)Cc3ccccc3)CC2)C1 [Example 18, (5r,8r)-N-benzyl-12-ethyl-N-methyl-4-oxa-12-azadispiro[2.1.5.3]tridecan-8-amine]	> 6.30
CN(Cc1ccccc1)[C@H]1CC[C@@]2(CC1)CN(c1ccccc1)CC1(CC1)O2 [Example 19, (5s,8s)-N-benzyl-N-methyl-12-phenyl-4-oxa-12-azadispiro[2.1.5.3]tridecan-8-amine]	> 7.00
CN(Cc1ccccc1)[C@H]1CC[C@]2(CC1)CN(c1ccccc1)CC1(CC1)O2 [Example 20, (5r,8r)-N-benzyl-N-methyl-12-phenyl-4-oxa-12-azadispiro[2.1.53]tridecan-8-amine]	> 7.00

Compound	pKi
CCN1C[C@]2(CC[C@@H](NC)CC2)OC2(CC2)C1=O [Example 21, (5r,8r)-12-ethyl-8-(methylamino)-4-oxa-12-azadispiro[2.1.5.3]tridecan-13-one acetate]	≤ 6.30
CCN1C[C@]2(CC[C@H](NC)CC2)OC2(CC2)C1=O [Example 22, (5s,8s)-12-ethyl-8-(methylamino)-4-oxa-12-azadispiro[2.1.5.3]tridecan-13-one acetate]	≤ 6.30
CN[C@H]1CC[C@@]2(CC1)CN(c1ccccc1)C(=O)C1(CC1)O2 [Example 23, (5s,8s)-8-(methylamino)-12-phenyl-4-oxa-12-azadispiro[2.1.5.3]tridecan-13-one acetate]	≤ 6.30
CN[C@H]1CC[C@]2(CC1)CN(c1ccccc1)C(=O)C1(CC1)O2 [Example 24, (5r,8r)-8-(methylamino)-12-phenyl-4-oxa-12-azadispiro[2.1.5.3]tridecan-13-one acetate]	≤ 6.30
CN[C@H]1CC[C@@]2(CC1)CN(c1ccccc1)CC1(CC1)O2 [Example 25, (5s,8s)-N-methyl-12-phenyl-4-oxa-12-azadispiro[2.1.5.3]tridecan-8-amine acetate]	≤ 6.30
CN[C@H]1CC[C@]2(CC1)CN(c1ccccc1)CC1(CC1)O2 [Example 26, (5r,8r)-N-rnethyl-12-phenyl-4-oxa-12-azadispiro[2.1.5.3]tridecan-8-amine acetate]	≤ 6.30
CCN1C[C@]2(CC[C@@H](N(C)CCC(C)C)CC2)OC2(CC2)C1=O [Example 27, (5r,8r)-12-ethyl-8-[methyl(3-methylbutyl)amino]-4-oxa-12-azadispiro[2.1.5.3]tridecan-13-one]	> 6.30
CCN1C[C@]2(CC[C@H](N(C)CCC(C)C)CC2)OC2(CC2)C1=O [Example 28, (5s,8s)-12-ethyl-8-[rnethyl(3-methylbutyl)amino]-4-oxa-12-azadispiro[2.1.5.3]tridecan-13-one]	> 6.30
CC(C)CCN(C)[C@H]1CC[C@@]2(CC1)CN(c1ccccc1)C(=O)C1(CC1)O2 [Example 29, (5s,8s)-8-[methyl(3-methylbutyl)amino]-12-phenyl-4-oxa-12-azadispiro[2.1.5.3]tridecan-13-one]	> 6.30
CC(C)CCN(C)[C@H]1CC[C@]2(CC1)CN(c1ccccc1)C(=O)C1(CC1)O2 [Example 30, (5r,8r)-8-[methyl(3-methylbutyl)amino]-12-phenyl-4-oxa-12-azadispiro[2.1.5.3]tridecan-13-one]	> 7.00
CC(C)CCN(C)[C@H]1CC[C@@]2(CC1)CN(c1ccccc1)CC1(CC1)O2 [Example 31, (5s,8s)-N-methyl-N-(3-methylbutyl)-12-phenyl-4-oxa-12-azadispiro[2.1.5.3]tridecan-8-amine]	> 7.00
CC(C)CCN(C)[C@H]1CC[C@]2(CC1)CN(c1ccccc1)CC1(CC1)O2 [Example 32, (5r,8r)-N-rnethyl-N-(3-methylbutyl)-12-phenyl-4-oxa-12-azadispiro[2.1.5.3]tridecan-8-amine]	> 7.00
CCN1C[C@]2(CC[C@H](N(C)CC(C)C)CC2)OC2(CC2)C1=O [Example 33, (5s,8s)-12-ethyl-8-[methyl(2-methylpropyl)amino]-4-oxa-12-azadispiro[2.1.5.3]tridecan-13-one]	> 6.30
CN(CCc1ccccc1)[C@H]1CC[C@]2(CC1)CN(c1ccccc1)CC1(CC1)O2 [Example 34, (5r,8r)-N-methyl-12-phenyl-N-(2-phenylethyl)-4-oxa-12-azadispiro[2.1.5.3]tridecan-8-amine]	> 7.00
CCN1CC2(CC2)O[C@]2(CC[C@H](N(C)CCC(C)C)CC2)C1 [Example 35, (5r,8r)-12-ethyl-N-methyl-N-(3-methylbutyl)-4-oxa-12-azadispiro[2.1.5.3]tridecan-8-amine]	> 6.30
CCN1C[C@]2(CC[C@H](NCc3ccccc3)CC2)OCC1=O [Example 36, (6s,9s)-9-(benzylamino)-4-ethyl-1-oxa-4-azaspiro[5.5]undecan-3-one]	≤ 6.30
CCN1C[C@]2(CC[C@@H](NCc3ccccc3)CC2)OCC1=O [Example 37, (6r,9r)-9-(benzylamino)-4-ethyl-1-oxa-4-azaspiro[5.5]undecan-3-one]	≤ 6.30
CCN1C[C@]2(CC[C@H](N(C)CC(C)C)CC2)OCC1=O [Example 38, (6s,9s)-4-ethyl-9-(isobutyl(methyl)amino)-1-oxa-4-azaspiro[5.5]undecan-3-one]	> 6.30
CCN1C[C@]2(CC[C@H](NCc3ccccc3)CC2)OC(C)(C)C1=O [Example 39, (6s,9s)-9-(benzylamino)-4-ethyl-2,2-dimethyl-1-oxa-4-azaspiro[5.5]undecan-3-one]	≤ 6.30
